# Test results published in patent US8859584B2, “TRPV1 antagonists” (AbbVie Inc., priority 2011, dated 2014).
# Key:
# rats [1] = experiment: Rat Acute Capsaicin-Induced Flinching Behavior; type: in vivo; conditions: 100 μmol/kg oral, capsaicin 2.5 μg one hour after compound, five minute observation
# Procedure: (iv) Rat Acute Capsaicin-Induced Flinching Behavior
# Rats were placed in individual observation cages. Following an acclimation period of 30 minutes, selected compounds were administered orally at a dose of 100 μmol/kg orally in a vehicle (10% ethanol/20% Tween 80/70% polyethylene glycol-400) at a volume of 2 mL/kg. One hour after administration of the compound, 2.5 μg of capsaicin in a 10 μL solution of 10% ethanol/90% hydroxypropyl-β-cyclodextrin was injected subcutaneously into the dorsal aspect of the right hind paw. The observation cage was then suspended above mirrors in order to facilitate observation. […] The number of flinching behaviors of the injured paw was recorded during the five minute observation period (Gilchrist, H. D.; Allard, B. L.; Simone, D. A.; Enhanced withdrawal responses to heat and mechanical stimuli following intraplantar injection of capsaicin in rats. Pain, 1996, 67, 179-188). The percent reduction in the number of flinching behaviors produced from oral administration of the test compounds relative to control-treated animals (% effect) is reported in Table 2.
# rats [2] = experiment: Sodium Iodoacetate-Induced Knee Joint Osteoarthritic Pain Model (hind limb grip force); type: in vivo; conditions: rat; 100 μmol/kg po single dose; 1 hour after administration; 20 days after sodium iodoacetate; read-out: % effect (% return to normalcy of hind limb grip force)
# Procedure: (v) Sodium Iodoacetate-Induced Knee Joint Osteoarthritic Pain Model
# Unilateral knee joint osteoarthritis was induced in the rats by a single intra-articular (i.a.) injection of sodium iodoacetate (3 mg in 0.05 mL sterile isotonic saline) into the right knee joint cavity under light isoflurane anesthesia using a 26G needle. […] Pain behavioral assessment of hind limb grip force was conducted by recording the maximum compressive force exerted on the hind limb strain gauge setup, in a commercially available grip force measurement system (Columbus Instruments, Columbus, Ohio). The grip force data was converted to a maximum hindlimb cumulative compressive force (CFmax) (gram force)/kg body weight for each animal. The analgesic effects of test compounds were determined 20 days following the i.a. injection of sodium iodoacetate. The vehicle control group for each compound being tested was assigned 0% whereas the age matched naïve group was assigned as being 100% (normal). The % effect for each dose group was then expressed as % return to normalcy compared to the naïve group. Test compounds were administered orally in 10% ethanol/20% Tween 80/70% polyethylene glycol-400 vehicle at a volume of 2 mL/kg. The assessment of the analgesic effects of test compounds was made 1 hour following oral administration. The assessment of the analgesic effects of test compounds can be made following a single dose or following repeated administration wherein the frequency of dosing is 1 to 2 times daily. The duration of such repeated daily dosing may last for any time greater than one day. A typical duration of repeated daily dosing is about 5 days to about 12 days.
# human TRPV1 [3] = target: T1, human TRPV1 (Homo sapiens, UniProt Q8NER1); experiment: Acid Activation Assay (pH 5.0, FLIPR intracellular Ca2+, recombinant HEK293 cells); type: cell-based; conditions: percentage of maximal pH 5.0-induced response remaining; HEK293 hTRPV1; max concentration 37.5 μM
# T1 construct: expressed in transfected cells
# Procedure, shortened: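 HEK293 cells stably expressing recombinant hTRPV1 were loaded with calcium dye for 90-120 min at 25° C and pre-treated with compound for 3 min before a pH 5.0 (DPBS/MES) challenge. Peak FLIPR fluorescence over baseline is given as percentage of the maximal pH 5.0-induced response.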
# human TRPV1 [4] = target: T1, human TRPV1; experiment: Capsaicin Activation Assay (FLIPR intracellular Ca2+, recombinant HEK293 cells); type: cell-based; conditions: recombinant HEK293 cells expressing hTRPV1; 50 nM capsaicin; read-out: human TRPV1 capsaicin IC50
# rats [5] = experiment: Rat Tail Immersion (noxious thermosensation, 55° C. water bath); type: in vivo; conditions: morphine 6 mg/kg i.p. in saline, relative to vehicle control
# Procedure: (iii) Rat Tail Immersion Protocol:
# Compounds were tested for their effects on noxious thermosensation using the tail immersion assay. Testing was performed one hour following oral administration of 100 μmol/kg of the compound in 10% ethanol/20% Tween-80/70% PEG-400 (2 mL/kg). Mophine (6 mg/kg) was administered interperitoneally (i.p.) using saline (2 mL/kg) as the vehicle. For testing, a circulating water bath was heated to 55° C. Thirty to sixty minutes post dosing, the rats were handled for a few seconds to calm them down and then cupped with their back against the testers hand at a slight angle with head facing away from tester. With rat in one hand and a 0.01 second stopwatch in the other hand, the tail was quickly immersed 6-8 cm in water bath or to a distance leaving 2-3 cm of tail out of water. The timer was started simultaneously. […] This response latency (in seconds) was recorded. Process was repeated 3 times with 3-4 minutes between readings for a final average.
# For a given compound, a percent increase in the average response latency (in seconds) for tail withdrawal relative to a vehicle control was determined % increase=[(tc−tv)/tv]×100% tc=response time (in seconds) with oral dosing of compounds tv=response time (in seconds) with oral dosing of vehicle […]
# Table 1 reports the % increase in tail withdrawal latency measured for the compounds tested. […]
# T1 sequence (Q8NER1 whole entry): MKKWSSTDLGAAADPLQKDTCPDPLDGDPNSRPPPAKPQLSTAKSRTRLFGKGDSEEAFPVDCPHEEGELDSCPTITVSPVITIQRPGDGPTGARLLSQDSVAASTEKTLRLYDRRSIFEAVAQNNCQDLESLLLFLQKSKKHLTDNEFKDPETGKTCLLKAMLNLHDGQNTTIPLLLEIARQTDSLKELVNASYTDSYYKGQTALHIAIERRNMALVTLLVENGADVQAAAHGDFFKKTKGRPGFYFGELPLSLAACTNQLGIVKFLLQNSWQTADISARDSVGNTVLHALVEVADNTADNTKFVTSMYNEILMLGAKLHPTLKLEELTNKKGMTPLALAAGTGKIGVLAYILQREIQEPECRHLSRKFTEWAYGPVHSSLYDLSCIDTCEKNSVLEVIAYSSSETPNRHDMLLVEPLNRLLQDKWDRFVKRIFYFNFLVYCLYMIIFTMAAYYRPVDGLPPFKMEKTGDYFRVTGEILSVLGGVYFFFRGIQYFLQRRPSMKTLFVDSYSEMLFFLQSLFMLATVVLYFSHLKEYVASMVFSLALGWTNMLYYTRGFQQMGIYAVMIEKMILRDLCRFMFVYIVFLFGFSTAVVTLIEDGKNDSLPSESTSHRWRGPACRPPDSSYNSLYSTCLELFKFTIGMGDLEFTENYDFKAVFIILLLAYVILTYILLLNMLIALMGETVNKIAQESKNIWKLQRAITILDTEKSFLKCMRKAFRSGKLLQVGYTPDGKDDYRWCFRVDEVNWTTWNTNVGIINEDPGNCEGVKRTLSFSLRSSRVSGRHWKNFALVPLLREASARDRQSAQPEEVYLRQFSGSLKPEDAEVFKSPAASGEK
smiles,measurement,setting,value
"O=C(Nc1cccc2c1C[C@H](O)C2)N[C@@H]1CC(CF)(CF)Oc2cc(Cl)ccc21 [Example 4, 1-[(4R)-7-chloro-2,2-bis(fluoromethyl)-3,4-dihydro-2H-chromen-4-yl]-3-[(2R)-2-hydroxy-2,3-dihydro-1H-inden-4-yl]urea]",% effect (percent reduction in number of flinching behaviors relative to control-treated animals),rats [1],54%
same,inhibition in vivo at 100 µmol/kg,rats [2],67%
same,human TRPV1 H+ (max % remain),human TRPV1 [3],57%
same,IC50,human TRPV1 [4],40 nM
"O=C(Nc1cccc2c1C[C@H](O)C2)N[C@@H]1CC(CF)(CF)Oc2cc(C(F)(F)F)ccc21 [Example 7, 1-[(4R)-2,2-bis(fluoromethyl)-7-(trifluoromethyl)-3,4-dihydro-2H-chromen-4-yl]-3-[(2R)-2-hydroxy-2,3-dihydro-1H-inden-4-yl]urea]",% effect (percent reduction in number of flinching behaviors relative to control-treated animals),rats [1],94%
same,inhibition in vivo at 100 µmol/kg,rats [2],68%
same,human TRPV1 H+ (max % remain),human TRPV1 [3],48%
same,IC50,human TRPV1 [4],47 nM
"CC1(C)C[C@@H](NC(=O)Nc2cccc3c2C[C@H](O)C3)c2ccc(F)c(F)c2O1 [Example 9, 1-[(4R)-7,8-difluoro-2,2-dimethyl-3,4-dihydro-2H-chromen-4-yl]-3-[(2R)-2-hydroxy-2,3-dihydro-1H-inden-4-yl]urea]",% effect (percent reduction in number of flinching behaviors relative to control-treated animals),rats [1],76%
same,inhibition in vivo at 100 µmol/kg,rats [2],67%
same,human TRPV1 H+ (max % remain),human TRPV1 [3],82%
same,IC50,human TRPV1 [4],60 nM
"CC1(C)C[C@@H](NC(=O)Nc2cccc3c2C[C@@H](O)C3)c2ccc(F)c(Cl)c2O1 [Example 36, 1-[(4R)-8-chloro-7-fluoro-2,2-dimethyl-3,4-dihydro-2H-chromen-4-yl]-3-[(2S)-2-hydroxy-2,3-dihydro-1H-inden-4-yl]urea]",% effect (percent reduction in number of flinching behaviors relative to control-treated animals),rats [1],71%
same,inhibition in vivo at 100 µmol/kg,rats [2],46%
same,human TRPV1 H+ (max % remain),human TRPV1 [3],32%
same,IC50,human TRPV1 [4],26 nM
CN1CC[C@]23c4c5ccc(O)c4O[C@H]2[C@@H](O)C=C[C@H]3[C@H]1C5 [Morphine],% Increase in Tail Withdrawal Latency,rats [5],+++ (greater than or equal to 25% increase)
